The record followed here is PMC11374660, “The novel family of Warbicin® compounds inhibits glucose uptake both in yeast and human cells and restrains cancer cell proliferation” (Frontiers in Oncology, 2024).

The subject of data set [1] is untransformed MCF10A cell line. The experiment in a line: Growth and apoptosis of untransformed MCF10A cells (IncuCyte). The class given is cell-based, human. The note with it: 1 mM glucose, 25 µM.
Data set [2] deals with glucose uptake by tps1Δ yeast cells. Put plainly: Zero-trans uptake of radioactive glucose in tps1Δ yeast cells. The class given is cell-based, S. cerevisiae. The note with it: for IC50: Saccharomyces cerevisiae. The method, then: (§1) Zero-trans uptake of radioactively labeled [U-^14C]glucose, [U-^14C]fructose or [U-^14C]galactose by S. cerevisiae cells was determined in accordance with previous studies ([45], [75]). Cells were grown on different carbon sources depending on the experiment. For measuring glucose uptake activity in the tps1Δ and tps1Δ hxtΔ strains, cells were grown on YP medium containing 325 mM glycerol (measurement of 10 s). Typically, for compound characterization and kinetic studies in wild type and tps1Δ strains, cells were (pre)grown on Complete Synthetic medium supplemented with 110 mM galactose (measurement of 10 s). In the experiments on the influence of hexokinase activity on the sugar uptake rate, the measurement duration was shortened to 5 s and cells were always grown on YP medium containing 325 mM glycerol and 430 mM ethanol. After harvesting, cells were washed twice with ice-cold 25 mM MES-buffer pH 6, and resuspended in their respective medium without sugar to a final concentration of 45 mg (wet weight)/mL. The amount of added tracer was estimated to give a response close to at least 1000 counts per min in order to adequately counter background noise. Cells were first preincubated for 10 min at 30°C with the compound to acclimate the cells to the temperature and to allow adequate interaction with the compound prior to uptake. Next, hexose sugar was mixed with the cell suspension, which was then incubated at 30°C for 5 or 10 s, depending on the experiment, after which the cells were rapidly filtered over a glass microfiber filter (Whatman GF/C) and washed three times with ice-cold dH2O. The loaded filter was transferred to a scintillation vial containing 3 mL liquid scintillation cocktail (Ultima-Flo M, Perkin Elmer) and counted using the Hidex 300 SL. Three blank measurements per strain were typically included to account for background signal, for which the cells were first quenched before adding the radioactive label.

The subject of the next data set is wild type yeast cells. The experiment in a line: Growth of wild type yeast (general toxicity). The class given is cell-based, S. cerevisiae. The note with it: 100 µM; 110 mM glucose medium and 325 mM glycerol + 430 mM ethanol medium. The method, then:
Growth curves were made by measuring OD595 in a 96-well plate using the Multiskan™ FC Microplate Photometer (Thermo Fisher Scientific). Typically, for tps1Δ rescue experiments, cells were (pre)grown in Complete Synthetic medium containing 110 mM galactose. Compounds were always added 10 min prior to glucose addition to ensure maximal interaction between the cells and compounds. Cells originating from the preculture were harvested, washed in medium without sugar, after which they were resuspended to an OD of 0.1 in 200 µL of the appropriate medium. At least three technical replicates were included per condition. OD595 was measured at 30°C every 30 min with a 10-min shaking interval.

The subject of the next data set is yeast tps1Δ cells. The experiment in a line: Glu6P and Fru1,6bisP accumulation in tps1Δ yeast cells after glucose addition. Type of data set: cell-based, S. cerevisiae. The note with it: compound added at -10 min. The method, then:
For measuring metabolite levels, yeast cells were typically grown in Complete Synthetic medium. […] However, when comparing the effect of Warbicin ® compounds on metabolite profiles of wild type and tps1Δ strains, cells were grown on 110 mM galactose. When grown to exponential phase, cells were harvested by centrifugation and washed twice with ice-cold 25 mM 2-(N-Morpholino)ethanesulfonic acid (MES) buffer, pH 6. Cells were suspended in Complete Synthetic medium without sugar at a concentration of 75 mg (wet weight)/mL followed by a temperature equilibration at 30°C in a shaking water bath for 30 min. Depending on the experiment, a final concentration of 2.5 mM, 7.5 mM or 10 mM glucose was added to the cell suspension. Compounds were added 10 min prior to glucose addition. […]
Through endpoint measurement of the absorbance of NADH or NADPH at 340 nm, metabolite concentrations in the yeast cells were calculated by applying Lambert’s Law. Different metabolites were measured through the use of coupled enzymatic reactions. […] Depending on the measured metabolite, different co-factors and auxiliary enzymes were added. For measuring glucose-6-phosphate, 1.07 mM NADP^+ was added to the assay buffer after which the baseline absorbance was measured. […] After stabilization of the OD340 spectra, ATP concentrations were measured by additionally adding 10 mM MgCl2 and 0.5 mM glucose to the assay buffer. […]

Data set [3] relates to HXK2 hxk1Δ glk1Δ yeast cells. Put plainly: Sugar uptake in HXK2 hxk1Δ glk1Δ yeast cells. The class given is cell-based, S. cerevisiae. The method, then: as §1, with “Cells were first preincubated for 10 min at 30°C with the compound to acclimate the cells to the temperature and to allow adequate interaction with the compound prior to uptake. Next, hexose sugar was mixed with the cell suspension, which was then incubated at 30°C for 5 or 10 s, depending on the experiment, after which the cells were rapidly filtered over a glass microfiber filter (Whatman GF/C) and washed three times with ice-cold dH2O.” left out, “Three blank measurements per strain were typically included to account for background signal, for which the cells were first quenched before adding the radioactive label.” left out

Data set [4] concerns glucose uptake by wild type yeast cells. The experiment in a line: Zero-trans uptake of radioactive glucose in wild type yeast cells. The class given is cell-based, S. cerevisiae. Particulars: for IC50: radioactive glucose, 10 s, read-out: IC50 for inhibition of 2.5 mM glucose uptake. The method, then: as §1

Where two headings read alike, the source gives them in different places. Where only a bound is given, the exact number is not on record here.

With `Cc1nc(SCC(=O)c2ccc3c(c2)NC(=O)CO3)c2c(-c3cccs3)csc2n1` [WBC-11C], the induction of apoptosis result in data set [1] is on record as “induces apoptosis”. The IC50 (usually the concentration at which inhibition is half-maximal) in data set [2] (read-out: IC50 values for 2.5 mM glucose uptake in tps1∆ cells) stood at 44 µM.

Turning to `Cc1nc(Sc2nnc3n2CCCCC3)c2c(-c3cccs3)csc2n1` [WBC-A], the “growth inhibition of wild type yeast” value with wild type yeast cells was “did not cause any growth inhibition at all”. Also, the IC50 was 20.8 µM in data set [2] (read-out: IC50 for inhibition of 2.5 mM glucose uptake), 17.1 µM in data set [4] (Saccharomyces cerevisiae) and 19 µM in data set [4]. Moreover, the “type of inhibition of glucose uptake” value in data set [2] (tps1Δ yeast cells) was “mixed type of inhibition”. For the same compound, the Ki (usually a measure of affinity in units of concentration, obtained from inhibition or displacement) in data set [2] (tps1Δ yeast cells, read-out: Ki (Dixon plot) for glucose uptake) worked out at 8.35 µM; in data set [4] (read-out: Ki (Dixon plot) for glucose uptake), 9.04 µM. The “hyperaccumulation of Glu6P and Fru1,6bisP after addition of 2.5 mM glucose” value with yeast tps1Δ cells is “concentration-dependent gradual drop in Glu6P and a more precipitous drop in Fru1,6bisP”. In data set [3] (Saccharomyces cerevisiae, read-out: inhibition of fructose transport), the inhibition (in general, the change of the read-out against control, counted positive when it falls) at 50 µM is greater than 75%. Also, in data set [3] (strain expressing Hxk2), the “1 mM glucose uptake rate” value is “strong decrease in glucose uptake rate”. For the same compound, the “type of inhibition of glucose uptake (Lineweaver-Burk)” value in data set [4] was “mixed type of inhibition”.
